Like-named read-outs stand apart in the source and are kept apart here.
How the values were obtained:
[1] = Plasma pharmacokinetics of bortezomib and docetaxel given in combination; format: in vivo, patients; conditions: for AUC(0-t) / AUC(0-inf) / clearance / half-life / Vd: human, plasma, intravenous; for AUC(0-t): read-out: AUC0–t, mean (%CV); for AUC(0-inf): read-out: AUC0–∞∞, mean (%CV); for clearance: read-out: CL, mean (%CV) (converted)
Source text: (§1) In patients participating in pharmacokinetic analysis, blood samples were taken on day 1, cycle 1, to determine the plasma concentration time profile of docetaxel and bortezomib. Samples were collected immediately before docetaxel infusion and bortezomib injection and at prespecified intervals on day 1. Samples were also taken for bortezomib pharmacokinetic analysis on day 11 of cycle 1. Whole-blood samples were taken for pharmacodynamic analysis using 20S proteasome inhibition assay ([Lightcap et al, 2000]) immediately before and 1 h after bortezomib dosing on days 1 and 11 of cycles 1 and 2, and on days 2 and 12 of cycle 1, in a subset of patients participating in pharmacokinetic analysis.

20S proteasome = 20S proteasome (Homo sapiens, UniProt P28074); experiment: 20S proteasome inhibition assay in whole blood; format: in vivo, patients; conditions: for Inhibition of 20S proteasome activity: whole blood
20S proteasome, sequence (P28074 60-263): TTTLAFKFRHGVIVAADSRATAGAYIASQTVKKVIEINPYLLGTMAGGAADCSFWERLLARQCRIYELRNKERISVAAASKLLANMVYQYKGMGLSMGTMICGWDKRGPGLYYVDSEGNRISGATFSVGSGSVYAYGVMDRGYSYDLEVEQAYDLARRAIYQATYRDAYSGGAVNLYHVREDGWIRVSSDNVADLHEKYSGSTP
Source text: as §1

[2] = tested on: HER2-positive breast cancer cell lines; set-up: method as in Cardoso et al, 2006; conditions: HER2-positive cells, four cell lines ref Cardoso et al, 2006; cited from earlier work
[3] = 1 mg, bortezomib 1.0 mg m^−2 (n=5), day 1, with docetaxel
[4] = 1 mg, bortezomib 1.0 mg m^−2 (n=5), day 11
[5] = 1.3 mg, bortezomib 1.3 mg m^−2 (n=3), day 1, with docetaxel
[6] = 1.3 mg, bortezomib 1.3 mg m^−2 (n=3), day 11
[7] = 1.5 mg, bortezomib 1.5 mg m^−2 (n=6), day 11
[8] = 1.5 mg, bortezomib 1.5 mg m^−2 (n=8), day 1, with docetaxel

CC(C)C[C@H](NC(=O)[C@H](Cc1ccccc1)NC(=O)c1cnccn1)B(O)O [Bortezomib]
C0, mean (%CV) ([1]; bortezomib 1.0 mg m^−2 (n=5), day 1, with docetaxel): 208 (34) ng ml^−1 | C0, mean (%CV) ([1]; bortezomib 1.0 mg m^−2 (n=5), day 11): 552 (148) ng ml^−1 | C0, mean (%CV) ([1]; bortezomib 1.3 mg m^−2 (n=3), day 1, with docetaxel): 137 (54) ng ml^−1 | C0, mean (%CV) ([1]; bortezomib 1.3 mg m^−2 (n=3), day 11): 237 (59) ng ml^−1 | C0, mean (%CV) ([1]; bortezomib 1.5 mg m^−2 (n=6), day 11): 153 (41) ng ml^−1 | C0, mean (%CV) ([1]; bortezomib 1.5 mg m^−2 (n=8), day 1, with docetaxel): 268 (71) ng ml^−1 | AUC(0-t) [1, 3]: 43 ng·h/mL | AUC(0-inf) [1, 3]: 54.6 ng·h/mL | clearance [1, 3]: 562 mL/min | half-life ([1]; 1 mg, bortezomib 1.0 mg m^−2 (n=5), day 1, with docetaxel, read-out: T½,z, mean (%CV) (converted)): 9.15 h | Vd ([1]; 1 mg, bortezomib 1.0 mg m^−2 (n=5), day 1, with docetaxel, read-out: Vss, mean (%CV)): 222 L | Vd ([1]; 1 mg, bortezomib 1.0 mg m^−2 (n=5), day 1, with docetaxel, read-out: Vz, mean (%CV)): 408 L | AUC(0-t) [1, 4]: 112 ng·h/mL | AUC(0-inf) [1, 4]: 133 ng·h/mL | clearance [1, 4]: 225 mL/min | half-life ([1]; 1 mg, bortezomib 1.0 mg m^−2 (n=5), day 11, read-out: T½,z, mean (%CV) (converted)): 12.2 h | Vd ([1]; 1 mg, bortezomib 1.0 mg m^−2 (n=5), day 11, read-out: Vss, mean (%CV)): 151 L | Vd ([1]; 1 mg, bortezomib 1.0 mg m^−2 (n=5), day 11, read-out: Vz, mean (%CV)): 237 L | half-life ([1]; 1 mg, bortezomib 1.0 mg m^−2, day 1, patients with measurable plasma concentrations at 24 h post-dose (n=2), read-out: T½,z 24-h, mean (converted)): 15.1 h | half-life ([1]; 1 mg, bortezomib 1.0 mg m^−2, day 11, patients with measurable plasma concentrations at 24 h post-dose (n=4), read-out: T½,z 24-h, mean (converted)): 14.3 h | AUC(0-t) [1, 5]: 35.5 ng·h/mL | AUC(0-inf) [1, 5]: 49 ng·h/mL | clearance [1, 5]: 850 mL/min | half-life ([1]; 1.3 mg, bortezomib 1.3 mg m^−2 (n=3), day 1, with docetaxel, read-out: T½,z, mean (%CV) (converted)): 14.2 h | Vd ([1]; 1.3 mg, bortezomib 1.3 mg m^−2 (n=3), day 1, with docetaxel, read-out: Vss, mean (%CV)): 596 L | Vd ([1]; 1.3 mg, bortezomib 1.3 mg m^−2 (n=3), day 1, with docetaxel, read-out: Vz, mean (%CV)): 924 L | AUC(0-t) [1, 6]: 90.5 ng·h/mL | AUC(0-inf) [1, 6]: 111 ng·h/mL | clearance [1, 6]: 350 mL/min | half-life ([1]; 1.3 mg, bortezomib 1.3 mg m^−2 (n=3), day 11, read-out: T½,z, mean (%CV) (converted)): 12.2 h | Vd ([1]; 1.3 mg, bortezomib 1.3 mg m^−2 (n=3), day 11, read-out: Vss, mean (%CV)): 237 L | Vd ([1]; 1.3 mg, bortezomib 1.3 mg m^−2 (n=3), day 11, read-out: Vz, mean (%CV)): 374 L | half-life ([1]; 1.3 mg, bortezomib 1.3 mg m^−2, day 1, patients with measurable plasma concentrations at 24 h post-dose (n=2), read-out: T½,z 24-h, mean (converted)): 18.1 h | half-life ([1]; 1.3 mg, bortezomib 1.3 mg m^−2, day 11, patients with measurable plasma concentrations at 24 h post-dose (n=2), read-out: T½,z 24-h, mean (converted)): 17.1 h | AUC(0-t) [1, 7]: 103 ng·h/mL | AUC(0-inf) [1, 7]: 161 ng·h/mL | clearance [1, 7]: 267 mL/min | half-life ([1]; 1.5 mg, bortezomib 1.5 mg m^−2 (n=6), day 11, read-out: T½,z, mean (%CV) (converted)): 23.6 h | Vd ([1]; 1.5 mg, bortezomib 1.5 mg m^−2 (n=6), day 11, read-out: Vss, mean (%CV)): 391 L | Vd ([1]; 1.5 mg, bortezomib 1.5 mg m^−2 (n=6), day 11, read-out: Vz, mean (%CV)): 538 L | AUC(0-t) [1, 8]: 69 ng·h/mL | AUC(0-inf) [1, 8]: 85.3 ng·h/mL | clearance [1, 8]: 615 mL/min | half-life ([1]; 1.5 mg, bortezomib 1.5 mg m^−2 (n=8), day 1, with docetaxel, read-out: T½,z, mean (%CV) (converted)): 6.9 h | Vd ([1]; 1.5 mg, bortezomib 1.5 mg m^−2 (n=8), day 1, with docetaxel, read-out: Vss, mean (%CV)): 209 L | Vd ([1]; 1.5 mg, bortezomib 1.5 mg m^−2 (n=8), day 1, with docetaxel, read-out: Vz, mean (%CV)): 282 L | half-life ([1]; 1.5 mg, bortezomib 1.5 mg m^−2, day 1, patients with measurable plasma concentrations at 24 h post-dose (n=2), read-out: T½,z 24-h, mean (converted)): 17.8 h | half-life ([1]; 1.5 mg, bortezomib 1.5 mg m^−2, day 11, patients with measurable plasma concentrations at 24 h post-dose, read-out: T½,z 24-h, mean (converted)): 23.6 h | half-life ([1]; following the first dose, patients with measurable plasma concentrations at 24 h post-dose, read-out: Terminal half-lives, mean values across dose levels): 15 to 18 h | Percent 20S proteasome inhibition, cycle 2 versus cycle 1 (20S proteasome; all dose groups): greater in cycle 2 than cycle 1 | Inhibition of 20S proteasome activity (20S proteasome; 1 h post-dose): 46.14–88.80% | Inhibition of 20S proteasome activity (20S proteasome; immediately prior to the dose on day 11): 10.93–51.18% | Effect on the effect of trastuzumab [2]: acts synergistically
